The NIST ThermoML archive (doi:10.1016/j.fluid.2012.06.028)
Numbers after ± are expanded uncertainties.

Test: xn = mol fraction of the nth substance listed
Conditions: Liquid, Vibrating tube method

CCCCCCCCCCCCCC [tetradecane] + CCCCCCCCCC
mass density [kg/m3]
Conditions	1000 kPa	2000 kPa	3000 kPa	4000 kPa	5000 kPa	6000 kPa	7000 kPa	8000 kPa	9000 kPa	10000 kPa
295 K, x2 = 0.5	746.3 ± 0.4	–	747.6 ± 0.4	748.3 ± 0.4	749 ± 0.4	749.7 ± 0.4	–	751.1 ± 0.4	751.7 ± 0.4	–
295 K, x2 = 0.75	739.2 ± 0.4	739.9 ± 0.4	740.7 ± 0.4	741.4 ± 0.4	742.1 ± 0.4	742.8 ± 0.4	743.5 ± 0.4	744.2 ± 0.4	745 ± 0.4	745.7 ± 0.4
295.5 K, x2 = 0.25	753.2 ± 0.4	753.9 ± 0.4	754.6 ± 0.4	755.3 ± 0.4	756 ± 0.4	756.7 ± 0.4	757.4 ± 0.4	758 ± 0.4	758.7 ± 0.4	759.4 ± 0.4
